Data: PubChem BioAssay (NCI)
Several values for one entry are separate records, joined by “and”; a condition that tells them apart may be missing. Equal values may be shown once.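 Growth conditions: 96-well plates. Treatment: test compound, 48 hours, 5 concentrations. Analysis: linear interpolation between bracketing concentrations; unreached endpoints set to highest concentration. Here, GI50 denotes the concentration required for 50% inhibition of growth. TGI denotes the concentration required for complete inhibition of growth.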

Tests used:
Experiment in all cases: DTP human tumour cell line panel, 48 h; in the data active means GI50 below about 0.43 µM; inactive means the rest
[1] = tested on: SR leukemia
[2] = tested on: DMS 114 small cell lung
[3] = tested on: SNB-78 CNS
[4] = tested on: HOP-18 NSCLC
[5] = tested on: DMS 273 small cell lung
[6] = tested on: A549 NSCLC
[7] = tested on: LXFL 529 NSCLC
[8] = tested on: DLD-1 colon
[9] = tested on: KM20L2 colon
[10] = tested on: BT-549 breast

O=S(=O)(N/N=C/c1cccc(Cl)c1Cl)c1ccccc1
90.3 µM: TGI [2]
> 100 µM: TGI [1] | TGI [3] | TGI [4] | TGI [5] | TGI [6] | TGI [7] | TGI [8] | TGI [9]

CC1=C(C(=O)NCc2ccccc2)C(c2ccc([N+](=O)[O-])cc2)C(C(=O)NCc2ccccc2)=C(C)N1
> 100 µM: TGI [2] | TGI [3] | TGI [4] | TGI [5] | TGI [6] | TGI [7] | TGI [8]
54 µM: TGI [9]

COc1cc2c(cc1OC)C(OC)N(C)c1c-2ccc2cc3c(cc12)OCO3 (centres undefined)
> 75 µM: TGI [10] | TGI [1] | TGI [3]
68.5 µM: TGI [4]
12.3 µM: TGI [2]
6.5 µM: TGI [9]
14.4 µM: TGI [5]
61.2 µM: TGI [8]

COc1ccc(C(=O)C(c2ccc(OC)cc2)C2OC(=O)C(Cl)=C2Cl)cc1 (centres undefined)
> 100 µM: TGI [1] | TGI [2] | TGI [3] | TGI [4] | TGI [6] | TGI [7] | TGI [8]

CC(C)C1CC2C(=O)N(c3ccccc3)C(=O)C2c2[nH]c3ccccc3c21 (centres undefined)
77.3 µM: TGI [3]
29.2 µM: TGI [5]
> 100 µM: TGI [2] | TGI [6] | TGI [8] | TGI [9]

Cc1nc(-c2ccccc2)cc2c1c(=O)oc1ccccc12
> 100 µM: TGI [1] | TGI [2] | TGI [3] | TGI [4] | TGI [5] | TGI [6] | TGI [7] | TGI [8] | TGI [9]

CC(=O)C1C(=O)NC(=O)C1=O (centres undefined)
> 100 µM: TGI [2] | TGI [3] | TGI [4] | TGI [5] | TGI [7] | TGI [9]

O=C1c2ccccc2NC1(c1ccccc1)c1c(-c2ccccc2)[nH]c2ccccc12 (centres undefined)
> 100 µM: TGI [1] | TGI [2] | TGI [3] | TGI [4] | TGI [5] | TGI [6] | TGI [7] | TGI [8] | TGI [9]

O=C(O)/C(Cl)=C(\Cl)C(=O)NC1C2CC3CC(C2)CC1C3 (centres undefined)
> 100 µM: TGI [1] | TGI [2] | TGI [3] | TGI [4] | TGI [5] | TGI [6] | TGI [7] | TGI [8] | TGI [9]

NCCN.NCCN.O=C[O-].O=C[O-].[Co+3].[O-][Cl+3]([O-])([O-])[O-]
inactive: GI50 [1] > 100 µM | GI50 [2] > 100 µM | GI50 [3] > 100 µM | GI50 [4] > 100 µM | GI50 [6] > 100 µM | GI50 [7] > 100 µM | GI50 [8] > 100 µM | GI50 [9] > 100 µM
> 100 µM: TGI [1] | TGI [2] | TGI [3] | TGI [4] | TGI [6] | TGI [7] | TGI [8] | TGI [9]

COc1ccc(Cc2cc3c(cc2OCC(=O)O)OCO3)cc1
> 100 µM: TGI [1] | TGI [2] | TGI [6] | TGI [8] | TGI [9]

C[C@@H](CN1CC(=O)NC(=O)C1)N1CC(=O)NC(=O)C1
626 µM: TGI [5]
1290 µM: TGI [9]
1480 µM: TGI [3]
441 µM: TGI [2]
1470 µM: TGI [1]
1090 µM: TGI [8]
783 µM: TGI [10]
1180 µM: TGI [4]
692 µM: TGI [6]

O=C(c1ccccc1)c1oc2ccc(Br)cc2c1-c1cnn(-c2ccccc2)c1
> 100 µM: TGI [2] | TGI [3] | TGI [5] | TGI [7] | TGI [8] | TGI [9]

CN(CCc1ccccn1)c1nc(=[N+](C)C)ss1
> 100 µM: TGI [2] | TGI [3] | TGI [4] | TGI [5] | TGI [6] | TGI [7] | TGI [8] | TGI [9]

O=C(Nc1cccc(Cc2cccc(NC(=O)c3ccccc3)c2)c1)c1ccccc1
> 100 µM: TGI [1] | TGI [2] | TGI [4] | TGI [5] | TGI [6] | TGI [7] | TGI [8] | TGI [9]

CN(/N=C/c1cccc2cccnc12)c1ccc([N+](=O)[O-])cc1
> 100 µM: TGI [2] | TGI [3] | TGI [4] | TGI [5] | TGI [6] | TGI [7] | TGI [8] | TGI [9]

CN(C)CCSc1cccc(-c2cc(-c3cccc(SCCN(C)C)c3)nc(SCCN(C)C)n2)c1
3.46 µM: TGI [9]
25.9 µM: TGI [8]
4.49 µM: TGI [1]
6.25 µM: TGI [3]
3.47 µM: TGI [6]
3.89 µM: TGI [7]

Cc1ccc(NC(=O)C(=O)CC(=O)C2CCOC2=O)c(C)c1 (centres undefined)
> 100 µM: TGI [2] | TGI [3] | TGI [4] | TGI [5] | TGI [6] | TGI [7] | TGI [8] | TGI [9]

CN1C(c2ccccc2)CS(=O)(=O)CS1(=O)=O (centres undefined)
> 100 µM: TGI [2] | TGI [3] | TGI [4] | TGI [5] | TGI [6] | TGI [7] | TGI [8] | TGI [9]

O/N=C1/C(=C/c2ccc(Oc3ccccc3)cc2)CCCC1C(NO)c1ccc(Oc2ccccc2)cc1 (centres undefined)
26.7 µM: TGI [9]
> 100 µM: TGI [2] | TGI [3] | TGI [4] | TGI [5] | TGI [6] | TGI [7] | TGI [8]

Nc1ccccc1NC(=O)c1ccc(CCCC(=O)Nc2ccc(C3CC3N)cc2)cc1 (centres undefined)
inactive: GI50 [10] 3.09 µM | GI50 [1] 0.738 µM | GI50 [6] 4.38 µM
37.9 µM: TGI [10]
> 100 µM: TGI [1] | TGI [6]

Cc1cc(Nc2c3ccccc3nc3ccccc23)ccc1NS(C)(=O)=O
5.91 µM: TGI [1]
12 µM: TGI [6]
22.5 µM: TGI [10]
inactive: GI50 [10] 10.3 µM | GI50 [1] 2.11 µM | GI50 [6] 2.85 µM

COc1cc(Nc2ncc(F)c(Nc3ccc4c(n3)NC(=O)C(C)(C)O4)n2)cc(OC)c1OC
> 100 µM: TGI [1]
inactive: GI50 [10] 3.24 µM | GI50 [1] 2.71 µM and > 10 µM | GI50 [6] 4.75 µM
> 10 µM: TGI [10] | TGI [6]
